From patent US8921360B2, “Heterobicycle-substituted azolyl benzene fungicides” (priority 2009, dated 2014)

What was measured:
Assay type in all cases: in vivo
[1] = test system: Erysiphe graminis f. sp. tritici; experiment: Test A: wheat powdery mildew, preventive spray on wheat seedlings; details: Blumeria graminis, 192 h, wheat seedlings sprayed to run-off, inoculated next day, rated after 8 days, 100 = 100% disease control, 0 = no control, read-out: Percentage Disease Control Test A
Method in brief: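 Wheat seedlings sprayed to run-off with compound suspended in acetone/water 50/50 plus 250 ppm Trem 014, at 200 ppm (equivalent to 800 g/ha) or 40 ppm where marked. Inoculated next day with Erysiphe graminis f. sp. tritici spore dust, held 8 days at 20° C. Disease visually rated as % control relative to untreated controls.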

Septoria nodorum = experiment: Test D: wheat glume blotch, preventive spray on wheat seedlings; details: Parastagonospora nodorum, 216 h, wheat seedlings sprayed to run-off, inoculated next day, rated after 48 h + 7 days, read-out: Percentage Disease Control Test D
Method in brief: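 Compounds in acetone/water (50/50) with 250 ppm Trem 014 sprayed to run-off on wheat seedlings at 200 ppm (≈800 g/ha) or 40 ppm where marked. Spore inoculation next day, 48 h saturated atmosphere at 20 °C, then 7 days at 20 °C; visual rating as % disease control versus controls.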

[2] = test system: Puccinia recondita f sp. tritici; experiment: Test B: wheat leaf rust, preventive spray on wheat seedlings; details: Puccinia recondita, 192 h, wheat seedlings sprayed to run-off, inoculated next day, rated after 24 h + 7 days, read-out: Percentage Disease Control Test B
Septoria tritici = experiment: Test E: wheat leaf blotch, preventive spray on wheat seedlings; details: Zymoseptoria tritici, 456 h; 200 ppm; wheat seedlings sprayed to run-off, inoculated next day, rated after 48 h + 19 days; read-out: Percentage Disease Control Test E
Method in brief: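 Wheat seedlings were sprayed to run-off with compound at 200 ppm (≈800 g/ha) or 40 ppm in acetone/water with surfactant. Spores were inoculated the next day, followed by 48 h saturated atmosphere at 24° C, then 19 days at 20° C. Disease control was visually rated 0–100 relative to controls.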

Alternaria solani = experiment: Test G: tomato early blight, preventive spray on tomato seedlings; details: Alternaria solani, topical, 168 h, tomato seedlings sprayed to run-off, inoculated next day, rated after 48 h + 5 days, read-out: Percentage Disease Control Test G
Method in brief: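 Tomato seedlings sprayed to run-off with compound at 200 ppm (≈800 g/ha) or 40 ppm where marked, in acetone/water with 250 ppm Trem 014. Plants inoculated with A. solani spores the next day, held 48 h saturated at 27 °C, then 5 days at 24 °C. Disease visually rated as % control relative to untreated plants.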

Structure (SMILES) | pest or weed control at 200 ppm [1] | pest or weed control at 200 ppm (Septoria nodorum) | pest or weed control at 200 ppm [2] | pest or weed control at 200 ppm (Septoria tritici) | pest or weed control at 200 ppm (Alternaria solani)
COC(=O)NCc1cc(-n2ccc(-c3ccc4c(c3)CCCO4)n2)ccc1C [Compound 25, methyl N-[[5-[3-(3,4-dihydro-2H-1-benzopyran-6-yl)-1H-pyrazol-1-yl]-2-methylphenyl]methyl]carbamate] | 100% | 100% | 100% | 100% | 0%
COC(=O)NCc1cc(-c2ccn(-c3ccc4c(c3)CC3(CO4)OCCO3)n2)ccc1Cl [Compound 28, methyl N-[[2-chloro-5-(1-spiro[2H-1-benzopyran-3(4H), 2′-[1,3]dioxolan]-6-yl-1H-pyrazol-3-yl)phenyl]methyl]carbamate] | 99% | 99% | 100% | 93% | 90%
COC(=O)NCc1cc(-c2ccn(-c3ccc4c(c3)CC(=O)CO4)n2)ccc1Cl [Compound 29, methyl N-[[2-chloro-5-[1-(3,4-dihydro-3-oxo-2H-1-benzopyran-6-yl)-1H-pyrazol-3-yl]phenyl]methyl]carbamate] | 72% | 99% | 99% | 10% | 17%
COC(=O)NCc1cc(-c2ccn(-c3ccc4c(c3)CC(O)CO4)n2)ccc1Cl (centres unmarked) [Compound 30, methyl N-[[2-chloro-5-[1-(3,4-dihydro-3-hydroxy-2H-1-benzopyran-6-yl)-1H-pyrazol-3-yl]phenyl]methyl]carbamate] | 98% | 99% | 100% | 78% | 94%
